Data as given in publication PMC5962403 (SLAS discovery : advancing life sciences R & D, 2018).

How the values were obtained:
CBX7 ChD = target: T1, CBX7 ChD (Homo sapiens, UniProt O95931); assay type: binding; details: control ligands on 24 DNA constructs each, relative to nonligand
T1 sequence (O95931 11-69 limits assumed): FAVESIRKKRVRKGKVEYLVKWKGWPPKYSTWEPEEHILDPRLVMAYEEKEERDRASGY

CBX7 = details: cited from earlier work

| enrichment in model selection against CBX7 (in words) (CBX7 ChD) | Substance | selectivity to CBX7 over other CBX proteins and ChDs (CBX7) | Kd (CBX7; reported Kd for CBX7) [nM] |
| --- | --- | --- | --- |
| moderately enriched | Ac-F-A-I-Kme3-S-140-mers [medium-affinity ligand] | – | – |
| poorly enriched | Bz-A-I-Kme3-S-140-mers [low-affinity ligand] | – | – |
| – | UNC3866 | 6- to 18 fold | 97 |
